Experimental findings from US20170334899A1, “AMINO-SUBSTITUTED ISOTHIAZOLES” (Bayer Pharma Aktiengesellschaft, priority 2014, published 2017) are described below.

One experiment deals with HeLa. The experiment is described as follows: Proliferation assay (crystal violet), HeLa. Type of experiment: cell-based. To be noted: Homo sapiens, HeLa, 96 h, HeLa cells; 4 days incubation; crystal violet staining; read-out: IC50 inhibition of proliferation, HeLa. The procedure, abridged: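 Cells plated at 1000-5000/well with 10% FCS, treated after 24 h with compound at 0.001-10 μM (0.5% DMSO) for 4 days. Glutaraldehyde-fixed, crystal violet-stained, A595 normalised to zero-point plate (0%) and untreated cells (100%); IC50 by 4-parameter fit.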

The test system of experiment [1] is human cervical tumor cell line HeLa (ATCC CCL-2). The experiment can be described thus: SAC-Formation - Nocodazole-Induced Assay. Type of experiment: cell-based. To be noted: Homo sapiens, HeLa, 24 h, HeLa cells, nocodazole 0.1 μg/ml together with test compound, decrease of mitotic cells (phospho-histone H3 Ser10). The procedure, abridged: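 HeLa cells, plated overnight, were treated 24 h at 37 °C with nocodazole (0.1 μg/ml final) plus test compound (0.005–20 μM, 0.5% DMSO) added at the same time. After fixation, anti-phospho-histone H3 Ser10 and Hoechst staining gave the mitotic cell fraction by imaging. Values came from four-parameter Hill fits.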

For `CC(=O)Nc1cc(NC(=O)c2c(C)nsc2Nc2cnccn2)ccc1F` [Example 205, N-(3-acetamido-4-fluorophenyl)-3-methyl-5-(pyrazin-2-ylamino)-1,2-thiazole-4-carboxamide], the results for the IC50 (with HeLa; in experiment [1]) were greater than 10000 nM and 6000 nM, respectively.

As for `Cc1nsc(Nc2cncc(C(F)(F)F)n2)c1C(=O)Nc1ccc(OCCCNC(=O)OC(C)(C)C)nc1` [Example 190, tert-butyl {3-[(5-{[(3-methyl-5-{[6-(trifluoromethyl)pyrazin-2-yl]amino}-1,2-thiazoL-4-yl)carbonyl]amino}pyridin-2-yl)oxy]propyl}carbamate], the IC50 in the experiment with HeLa came to 420 nM; in experiment [1] it was 75 nM.

Regarding `Cc1nsc(Nc2cnc(C(F)(F)F)cn2)c1C(=O)Nc1ccc(OC2CCN(C)CC2)nc1` [Example 220, 3-methyl-N-{6-[(1-methylpiperidin-4-yl)oxy]pyridin-3-yl}-5-{[5-(trifluoromethyl)pyrazin-2-yl]amino}-1,2-thiazole-4-carboxamide], the results for the IC50 (in the experiment with HeLa; in experiment [1]) were 6200 nM and 1100 nM, respectively.

Regarding `Cc1nsc(Nc2cncc(C(F)(F)F)n2)c1C(=O)Nc1ccc(OC2CCNCC2)nc1` [Example 13, 3-Methyl-N-[6-(piperidin-4-yloxy)pyridin-3-yl]-5-{[6-(trifluoromethyl)pyrazin-2-yl]-amino}-1,2-thiazole-4-carboxamide], the IC50 in the experiment with HeLa turned out to be 10000 nM; in experiment [1], 4600 nM.

Consider `CNS(=O)(=O)c1ccc(NC(=O)c2c(C)nsc2Nc2cc(C#N)ccn2)cc1` [Example 210, 5-[(4-cyanopyridin-2-yl)amino]-3-methyl-N-[4-(methylsulfamoyl)phenyl]-1,2-thiazole-4-carboxamide], for which the IC50 in the experiment with HeLa came to 1900 nM; in experiment [1], 3200 nM.

In the case of `Cc1nsc(Nc2cc(C#N)ccn2)c1C(=O)Nc1ccc(NC2CCCNC2)nc1` (stereo not shown) [Example 242, 5-[(4-cyanopyridin-2-yl)amino]-3-methyl-N-[6-(piperidin-3-ylamino)pyridin-3-yl]-1,2-thiazole-4-carboxamide], the IC50 with HeLa is greater than 10000 nM; in experiment [1] it was 2600 nM.

Turning to `Cc1nsc(Nc2cncc(C(F)(F)F)n2)c1C(=O)Nc1ccc(OC2CCN(C)CC2)nc1` [Example 219, 3-methyl-N-{6-[(1-methylpiperidin-4-yl)oxy]pyridin-3-yl}-5-{[6-(trifluoromethyl)pyrazin-2-yl]amino}-1,2-thiazole-4-carboxamide], the IC50 in the experiment with HeLa was greater than 10000 nM; in experiment [1], 910 nM.

As to `CC(=O)Nc1cc(NC(=O)c2c(C)nsc2Nc2cnc(C(F)(F)F)cn2)ccc1F` [Example 206, N-(3-acetamido-4-fluorophenyl)-3-methyl-5-{[5-(trifluoromethyl)pyrazin-2-yl]amino}-1,2-thiazole-4-carboxamide], the IC50 in the experiment with HeLa was found to be 5100 nM; in experiment [1], 110 nM.

With `Cc1nsc(Nc2cc(C#N)ccn2)c1C(=O)Nc1cccc(NC(=O)C(C)(C)C)c1` [Example 183, 5-[(4-cyanopyridin-2-yl)amino]-N-{3-[(2,2-dimethylpropanoyl)amino]phenyl}-3-methyl-1,2-thiazole-4-carboxamide], the IC50 stood at 5000 nM in the experiment with HeLa and 1500 nM in experiment [1].

Regarding `Cc1nsc(Nc2cnc(C(F)(F)F)cn2)c1C(=O)Nc1ccc(OCC2CCCN(C(=O)OC(C)(C)C)C2)nc1` (stereo not shown) [Example 228, tert-butyl 3-{[(5-{[(3-methyl-5-{[5-(trifluoromethyl)pyrazin-2-yl]amino}-1,2-thiazol-4-yl)carbonyl]amino}pyridin-2-yl)oxy]methyl}piperidine-1-carboxylate], the IC50 was 270 nM with HeLa and 180 nM in experiment [1].

With `COC(=O)CCc1cccc(NC(=O)c2c(C)nsc2Nc2ccc(C#N)cn2)c1` [Example 176, methyl 3-{3-[({5-[(5-cyanopyridin-2-yl)amino]-3-methyl-1,2-thiazol-4-yl}carbonyl)amino]phenyl}propanoate], the values for the IC50 (with HeLa; in experiment [1]) were 5000 nM and 230 nM, respectively.

Turning to `Cc1nsc(Nc2cnccn2)c1C(=O)Nc1ccc(C(=O)OC(C)(C)C)cc1` [Example 184, tert-butyl 4-({[3-methyl-5-(pyrazin-2-ylamino)-1,2-thiazol-4-yl]carbonyl}amino)benzoate], the figures for the IC50 (with HeLa; in experiment [1]) were 3800 nM and 88 nM, respectively.

On to `Cc1nsc(Nc2cnc(C(F)(F)F)cn2)c1C(=O)Nc1ccc(OCC2CCN(C(=O)OC(C)(C)C)CC2)nc1` [Example 227, tert-butyl 4-{[(5-{[(3-methyl-5-{[5-(trifluoromethyl)pyrazin-2-yl]amino}-1,2-thiazol-4-yl)carbonyl]amino}pyridin-2-yl)oxy]methyl}piperidine-1-carboxylate], for which the IC50 was 2000 nM in the experiment on HeLa and 58 nM in experiment [1].

For `Cc1nsc(Nc2cncc(C(F)(F)F)n2)c1C(=O)Nc1ccc(C(=O)OC(C)(C)C)cc1` [Example 193, tert-butyl tert-butyl 4-{[(3-methyl-5-{[6-(trifluoromethyl)pyrazin-2-yl]amino}-1,2-thiazol-4-yl)carbonyl]amino}benzoate], the IC50 in the experiment with HeLa amounted to 2700 nM; in experiment [1] it was 470 nM.

Consider `Cc1nsc(Nc2cncc(C(F)(F)F)n2)c1C(=O)Nc1ccc(OCCNC(=O)OC(C)(C)C)nc1` [Example 191, tert-butyl {2-[(5-{[(3-methyl-5-{[6-(trifluoromethyl)pyrazin-2-yl]amino}-1,2-thiazol-4-yl)carbonyl]amino}pyridin-2-yl)oxy]ethyl}carbamate], for which the figures for the IC50 (with HeLa; in experiment [1]) were 1600 nM and 59 nM, respectively.

For `Cc1nsc(Nc2cnc3ccccc3n2)c1C(=O)Nc1ccc(NCCC(=O)OC(C)(C)C)nc1` [Example 236, tert-butyl N-[5-({[3-methyl-5-(quinoxalin-2-ylamino)-1,2-thiazol-4-yl]carbonyl}amino)pyridin-2-yl]-beta-alaninate], the IC50 came to 4100 nM in the experiment on HeLa and 3000 nM in experiment [1].

Take `Cc1nsc(Nc2ccc(C#N)cn2)c1C(=O)Nc1cccc(NC(=O)OC(C)(C)C)c1` [Example 179, tert-butyl {3-[({5-[(5-cyanopyridin-2-yl)amino]-3-methyl-1,2-thiazol-4-yl}carbonyl)amino]phenyl}carbamate]: the IC50 with HeLa was 3800 nM; in experiment [1], 320 nM.

As for `Cc1nsc(Nc2cnc(C(F)(F)F)cn2)c1C(=O)Nc1ccc(OCCNC(=O)OC(C)(C)C)c(F)c1` [Example 215, tert-butyl [2-(2-fluoro-4-{[(3-methyl-5-{[5-(trifluoromethyl)pyrazin-2-yl]amino}-1,2-thiazol-4-yl)carbonyl]amino}phenoxy)ethyl]carbamate], the IC50 was found to be 140 nM in the experiment with HeLa and 210 nM in experiment [1].

For `Cc1nsc(Nc2cnc3ccccc3n2)c1C(=O)Nc1ccc(OC2CCNCC2)nc1` [Example 19, 3-Methyl-N-[6-(piperidin-4-yloxy)pyridin-3-yl]-5-(quinoxalin-2-ylamino)-1,2-thiazole-4-carboxamide], the IC50 in the experiment with HeLa turned out to be 3500 nM; in experiment [1], 320 nM.

In the case of `Cc1nsc(Nc2cncc(C(F)(F)F)n2)c1C(=O)Nc1ccc(OC2CCCN(C(=O)OC(C)(C)C)C2)nc1` (stereo not shown) [Example 189, tert-butyl 3-[(5-{[(3-methyl-5-{[6-(trifluoromethyl)pyrazin-2-yl]amino}-1,2-thiazol-4-yl)carbonyl]amino}pyridin-2-yl)oxy]piperidine-1-carboxylate], the IC50 in the experiment on HeLa was determined as 940 nM; in experiment [1], 150 nM.

In the case of `Cc1nsc(Nc2cncc(C(F)(F)F)n2)c1C(=O)Nc1ccc(OCC2CCN(C(=O)OC(C)(C)C)CC2)nc1` [Example 226, tert-butyl 4-{[(5-{[(3-methyl-5-{[6-(trifluoromethyl)pyrazin-2-yl]amino}-1,2-thiazol-4-yl)carbonyl]amino}pyridin-2-yl)oxy]methyl}piperidine-1-carboxylate], the IC50 with HeLa turned out to be 910 nM; in experiment [1], 120 nM.

As to `Cc1cc(C)n(-c2ccccc2NC(=O)c2c(C)nsc2Nc2cnc3ccccc3n2)n1` [Example 243, N-[2-(3,5-dimethyl-1H-pyrazol-1-yl)phenyl]-3-methyl-5-(quinoxalin-2-ylamino)-1,2-thiazole-4-carboxamide], the IC50 is greater than 10000 nM with HeLa and 1800 nM in experiment [1].

Regarding `CNC(=O)c1ccc(NC(=O)c2c(C)nsc2Nc2cnc3ccccc3n2)cc1F` [Example 207, N-[3-fluoro-4-(methylcarbamoyl)phenyl]-3-methyl-5-(quinoxalin-2-ylamino)-1,2-thiazole-4-carboxamide], the IC50 is greater than 10000 nM in the experiment with HeLa and 200 nM in experiment [1].

With `Cc1nsc(Nc2cc(C#N)ccn2)c1C(=O)Nc1ccc(OCCC(=O)OC(C)(C)C)nc1` [Example 200, tert-butyl 3-({5-[({5-[(4-cyanopyridin-2-yl)amino]-3-methyl-1,2-thiazol-4-yl}carbonyl)amino]pyridin-2-yl}oxy)propanoate], the values for the IC50 (with HeLa; in experiment [1]) were greater than 10000 nM and 460 nM, respectively.

Regarding `Cc1nsc(Nc2cc(C#N)ccn2)c1C(=O)Nc1ccc(NC(=O)OC(C)(C)C)cc1` [Example 177, tert-butyl {4-[({5-[(4-cyanopyridin-2-yl)amino]-3-methyl-1,2-thiazol-4-yl}carbonyl)amino]phenyl}carbamate], the IC50 is greater than 10000 nM with HeLa and 3900 nM in experiment [1].

With `Cc1nsc(Nc2cncc(C(F)(F)F)n2)c1C(=O)Nc1ccc(C(=O)NC2CCN(CC(F)F)CC2)cc1` [Example 225, N-N-(4-{[1-(2,2-difluoroethyl)piperidin-4-yl]carbamoyl}phenyl)-3-methyl-5-{[6-(trifluoromethyl)pyrazin-2-yl]amino}-1,2-thiazole-4-carboxamide], the IC50 in the experiment on HeLa is 8300 nM; in experiment [1], 310 nM.
